Where two headings read alike, the source gives them in different places.
Key:
[1] = target: P. falciparum Rh5 (Rh5 – basigin interaction) (Plasmodium falciparum, UniProt Q8IFM5); test: biochemical; set-up: AlphaScreen of Rh5 - His-tagged basigin interaction with anti-Rh5 mAb beads; inhibition of luminescence signal; settings: Batch Reference=01; primary pilot screen, single point
Procedure: Using the Combi-multidrop, 5 μL of Rh5 stock solution (200 nM prepared in assay buffer) was added to columns 1–24 of the 384-well assay plate (Greiner 384-well white, low binding plate, #784904, Bioone). The PerkinElmer Janus automated dispensing system was then employed to transfer, via the pin-tool, 2 × 100 nL of the compound stock DMSO solution from the compound master plate to the assay plate. The plate was sealed and incubated for 30 min at room temperature. Using a Combi-multidrop, 5 μL of hexa-histidine tagged basigin stock solution (80 nM prepared in assay buffer) was then added to columns 1–23 and 5 μL assay buffer to column 24 of the 384-well assay plate. The plate was sealed again and incubated for 30 min at room temperature. A solution of AlphaScreen donor and acceptor beads (20 μg/mL prepared in assay buffer) plus anti-Rh5 mAb solution (2 μg/mL prepared in assay buffer) was prepared in assay buffer under subdued lighting. Using the Combi-multidrop, 10 μL of this solution was added to every well of the assay plate under subdued lighting. The plate was sealed with foil (plate max) and incubated at room temperature for 1 h. The assay plate was then analysed on the PerkinElmer Envision 2103 Multilabel Plate Reader (Ex 680, Em 520–620 nm). The optimised Rh5 AlphaScreen assay was then validated for HT screening purposes by conducting a pilot screen using known drug library (from Prestwick, Tocris and LOPAC) and the MMV Malaria Box, comprising 3708 and 400 compounds (Fig. 1), respectively. Historically, PPIs are notoriously difficult to target with small molecules. To enhance the likelihood of identifying an inhibitor of the Rh5 - basigin interaction the primary screen was conducted at a compound concentration of 20 μM. A 20 μM screening concentration is considered high, when compared to the commonly used primary screen concentrations of approximately 1–10 μM. To follow-up on hit compounds from the pilot validation screen, we next wanted to confirm the activity of the primary hits. To do this, a two-phase hit confirmation and counterscreen process was undertaken (Fig. 1). In the first phase, the 231 primary hits from both libraries were evaluated in the Rh5 AlphaScreen assay and counterscreen assay. Both assays were undertaken at 10 μM in duplicate. The counterscreen assay was conducted using AlphaScreen TruHits. […] The 45 secondary hits can be viewed in the top left quadrant of Fig. S8. Of the 45 hits, 13 compounds originated from the Malaria Box and 32 compounds from the known drug library.

[2] = system: P. falciparum 3D7 parasites; test: P. falciparum parasite viability assay (LDH); assay type: cell-based; settings: LDH activity, 10-point dilution series, 72 h, read-out: P. falciparum 3D7 EC50
Procedure: A modified version of the lactate dehydrogenase (LDH) assay described by [Gamo et al. […] Compounds were pre-dispensed in 384-well plates, RPMI/Albumax growth media was added, and P. falciparum inoculated. Plates were incubated for 72 h and then frozen at −80 °C overnight. LDH activity was quantified with the modified cofactor 3-acetylpyridine adenine dinucleotide (APAD) (Sigma Aldrich) by measuring absorbance of the tetrazolium indicator nitro blue tetrazolium (NBT) (Sigma Aldrich) at 650 nm. Parasite conditions: […] Growth inhibition assay: […] Intermediate compound dilution plates were prepared by dispensing 5 μL from each well of the compound master plate into 11.5 μL of RPMI/Albumax growth media. Duplicate assay plates (384-well) were then prepared by dispensing 0.5 μL of compound from the intermediate dilution plates into 9.5 μL of RPMI/Albumax growth media. […] The final DMSO concentration was 0.1% (to limit toxicity to parasites). […] Evaluation of parasite growth measuring lactate dehydrogenase (LDH) activity: After 72 h of incubation, plates were frozen at −80 °C overnight and then thawed at room temperature for at least 4 h. […] Plates were shaken to ensure mixing and absorbance at 650 nm was monitored using a PerkinElmer Envision plate reader after 30 min of incubation at room temperature. Data were normalised to percent growth inhibition using positive and negative controls and analyzed using TIBCO Spotfire software.

PfRh5 = PfRh5 (Plasmodium falciparum, UniProt Q8IFM5); test: Differential scanning fluorimetry of Rh5; assay type: binding, P. falciparum; settings: DSF
Sequence of PfRh5 (Q8IFM5 24-526): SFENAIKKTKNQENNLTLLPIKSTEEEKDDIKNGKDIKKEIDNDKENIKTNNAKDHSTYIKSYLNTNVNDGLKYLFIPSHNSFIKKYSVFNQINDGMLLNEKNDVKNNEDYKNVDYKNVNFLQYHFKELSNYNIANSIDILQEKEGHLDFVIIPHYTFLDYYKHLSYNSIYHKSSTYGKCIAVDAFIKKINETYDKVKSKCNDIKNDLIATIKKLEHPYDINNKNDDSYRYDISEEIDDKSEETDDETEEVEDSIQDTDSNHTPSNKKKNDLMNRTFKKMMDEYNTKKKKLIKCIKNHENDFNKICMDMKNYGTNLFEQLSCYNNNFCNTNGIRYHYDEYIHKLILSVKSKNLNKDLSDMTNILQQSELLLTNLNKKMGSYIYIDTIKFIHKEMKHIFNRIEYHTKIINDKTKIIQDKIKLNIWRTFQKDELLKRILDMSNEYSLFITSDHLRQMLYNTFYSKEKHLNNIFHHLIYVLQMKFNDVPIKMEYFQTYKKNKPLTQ
Procedure: Differential scanning fluorimetry assays were performed as described previously ([Murphy et al., 2013], [2014a], [2014b]) using a Rotor-Gene Q PCR. Briefly, purified PfRh5 was diluted in 20 mM Tris pH 8.0, 150 mM NaCl to achieve 10 μg per reaction and assayed with the appropriate concentration of inhibitor in a total reaction volume of 25 μL. SYPRO Orange (Molecular Probes, CA) was used as a fluorescence probe and detected at 530 nm. Compounds were titrated at final concentrations ranging from 5 μM to 80 μM final. Data was transformed and plotted using GraphPad Prism. Shown data are representative means of two technical experiments.

[3] = Solubility in SPR running buffer; assay type: physicochemical

Sequence of P. falciparum Rh5 (Rh5 – basigin interaction) (Q8IFM5 24-526): as above

O=C(Nc1cccc2c(=O)cc(-c3nnn[nH]3)oc12)c1ccc(OCCCCc2ccccc2)cc1 [pranlukast]
inhibition at 20 µM [1]: 75.4%
EC50 [2]: 40 µM
EC50 ([2]; Plasmodium falciparum, 3D7, 72 h): 39 µM
effect on Tm of Rh5 (PfRh5; concentrations of 0–20 μM): dose dependent increase in the Tm of Rh5
effect on Tm of Rh5 (PfRh5; high concentration (>40 μM)): markedly lower Tm
solubility in the SPR running buffer [3]: limited solubility

Reference: paper PMC7645381, “Development and application of a high-throughput screening assay for identification of small molecule inhibitors of the P. falciparum reticulocyte binding-like homologue 5 protein” (International Journal for Parasitology: Drugs and Drug …, 2020)
